Measured values: ChEMBL document CHEMBL1141547, “Investigations of the esterase, phosphatase, and sulfatase activities of the cytosolic mammalian carbonic anhydrase isoforms I, II, and XIII with 4-nitrophenyl esters as substrates” (Bioorg Med Chem Lett, 2008)

How the values were obtained:
[1] = biological target: T1, Carbonic anhydrase 13 (Mus musculus, UniProt Q9D6N1); assay: Inhibition of mouse carbonic anhydrase 13 assessed as 4-nitrophenyl phosphate hydrolysis
[2] = biological target: T1, Carbonic anhydrase 13; assay: Inhibition of mouse carbonic anhydrase 13 assessed as 4-nitrophenyl acetate hydrolysis

T1 sequence (Q9D6N1 whole entry): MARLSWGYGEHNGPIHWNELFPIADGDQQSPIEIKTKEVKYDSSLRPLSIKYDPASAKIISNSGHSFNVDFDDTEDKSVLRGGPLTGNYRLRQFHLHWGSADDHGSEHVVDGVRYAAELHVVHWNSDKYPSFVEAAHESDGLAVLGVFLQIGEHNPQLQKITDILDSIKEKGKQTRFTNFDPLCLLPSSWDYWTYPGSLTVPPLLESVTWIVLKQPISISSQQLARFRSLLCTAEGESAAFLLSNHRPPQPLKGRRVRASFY

SMILES: CC(=O)Nc1nnc(S(N)(=O)=O)s1 [ACETAZOLAMIDE]
- IC50 [1]: 1050 nM
- IC50 [2]: 490 nM
